Assays:
Hepatotoxicity [1] = test: Literature-mined compound from Fourches et al multi-species drug-induced liver injury (DILI) dataset, effect in non-rodents
Hepatotoxicity [2] = test: Literature-mined compound from Fourches et al multi-species drug-induced liver injury (DILI) dataset, effect in rodents; details: rodentia
Hepatotoxicity [3] = test: Literature-mined compound from Fourches et al multi-species drug-induced liver injury (DILI) dataset, effect in humans; details: human

Structure (SMILES) | Hepatotoxicity (Hepatotoxicity [1]) | Hepatotoxicity (Hepatotoxicity [2]) | Hepatotoxicity (Hepatotoxicity [3]) | Hepatotoxicity (Hepatotoxicity [1]; Liver) | Hepatotoxicity (Hepatotoxicity [2]; Liver) | Hepatotoxicity (Hepatotoxicity [3]; Liver)
COc1cc([C@@H]2c3cc4c(cc3[C@@H](O[C@@H]3O[C@@H]5CO[C@@H](c6cccs6)O[C@H]5[C@H](O)[C@H]3O)[C@H]3COC(=O)[C@H]23)OCO4)cc(OC)c1O [TENIPOSIDE] | no drug-induced liver injury reported | drug-induced liver injury reported | no drug-induced liver injury reported |  |  | 
C[C@H](Cn1cnc2c(N)ncnc21)OCP(=O)(O)O [TENOFOVIR ANHYDROUS] | no drug-induced liver injury reported | no drug-induced liver injury reported | drug-induced liver injury reported |  |  | 
CN1C(C(=O)Nc2ccccn2)=C(O)c2sccc2S1(=O)=O [TENOXICAM] |  |  |  | no drug-induced liver injury reported | no drug-induced liver injury reported | drug-induced liver injury reported
CN(C/C=C/C#CC(C)(C)C)Cc1cccc2ccccc12 [TERBINAFINE] | no drug-induced liver injury reported | drug-induced liver injury reported | drug-induced liver injury reported |  |  | 
CC(C)(C)NCC(O)c1cc(O)cc(O)c1 (configuration not stated) [TERBUTALINE] | drug-induced liver injury reported | drug-induced liver injury reported | no drug-induced liver injury reported |  |  | 
CC(C)(C)c1ccc(C(O)CCCN2CCC(C(O)(c3ccccc3)c3ccccc3)CC2)cc1 (configuration not stated) [TERFENADINE] | no drug-induced liver injury reported | no drug-induced liver injury reported | drug-induced liver injury reported |  |  | 
NCCCC[C@H](NC(=O)[C@@H]1CCCN1C(=O)[C@@H]1CSSC[C@H](NC(=O)CNC(=O)CNC(=O)CN)C(=O)N[C@@H](Cc2ccc(O)cc2)C(=O)N[C@@H](Cc2ccccc2)C(=O)N[C@@H](CCC(N)=O)C(=O)N[C@@H](CC(N)=O)C(=O)N1)C(=O)NCC(N)=O [TERLIPRESSIN] | drug-induced liver injury reported | no drug-induced liver injury reported | drug-induced liver injury reported |  |  | 
CCCCCCC(=O)O[C@H]1CC[C@H]2[C@@H]3CCC4=CC(=O)CC[C@]4(C)[C@H]3CC[C@]12C [TESTOSTERONE ENANTHATE] | no drug-induced liver injury reported | drug-induced liver injury reported | no drug-induced liver injury reported |  |  | 
CCC(=O)O[C@H]1CC[C@H]2[C@@H]3CCC4=CC(=O)CC[C@]4(C)[C@H]3CC[C@]12C [TESTOSTERONE PROPIONATE] | no drug-induced liver injury reported | drug-induced liver injury reported | no drug-induced liver injury reported |  |  | 
C[C@]12CC[C@H]3[C@@H](CCC4=CC(=O)CC[C@@]43C)[C@@H]1CC[C@@H]2O [TESTOSTERONE] | drug-induced liver injury reported | drug-induced liver injury reported | drug-induced liver injury reported |  |  | 
COc1cc2c(cc1OC)C1CC(=O)C(CC(C)C)CN1CC2 (configuration not stated) [TETRABENAZINE] | no drug-induced liver injury reported | no drug-induced liver injury reported | drug-induced liver injury reported |  |  | 
CCCCNc1ccc(C(=O)OCCN(C)C)cc1 [TETRACAINE] | no drug-induced liver injury reported | drug-induced liver injury reported | no drug-induced liver injury reported |  |  | 
ClC(Cl)=C(Cl)Cl [TETRACHLOROETHYLENE] | no drug-induced liver injury reported | drug-induced liver injury reported | drug-induced liver injury reported |  |  | 
CN(C)[C@@H]1C(O)=C(C(N)=O)C(=O)[C@@]2(O)C(O)=C3C(=O)c4c(O)cccc4[C@@](C)(O)[C@H]3C[C@@H]12 [TETRACYCLINE] | drug-induced liver injury reported | drug-induced liver injury reported | drug-induced liver injury reported |  |  | 

— ChEMBL document CHEMBL1697731, “Cheminformatics analysis of assertions mined from literature that describe drug-induced liver injury in different species” (Chem Res Toxicol, 2010)
